{
  "source": "paper PMC6152703",
  "about": "“Evaluation of the Antidiabetic Activity and Chemical Composition of Geranium collinum Root Extracts—Computational and Experimental Investigations” (Molecules : A Journal of Synthetic Chemistry and Natural …, 2017)",
  "key": {"α-glucosidase": {"target": "α-glucosidase (Saccharomyces cerevisiae, UniProt P53341)", "sequence (P53341 whole entry)": "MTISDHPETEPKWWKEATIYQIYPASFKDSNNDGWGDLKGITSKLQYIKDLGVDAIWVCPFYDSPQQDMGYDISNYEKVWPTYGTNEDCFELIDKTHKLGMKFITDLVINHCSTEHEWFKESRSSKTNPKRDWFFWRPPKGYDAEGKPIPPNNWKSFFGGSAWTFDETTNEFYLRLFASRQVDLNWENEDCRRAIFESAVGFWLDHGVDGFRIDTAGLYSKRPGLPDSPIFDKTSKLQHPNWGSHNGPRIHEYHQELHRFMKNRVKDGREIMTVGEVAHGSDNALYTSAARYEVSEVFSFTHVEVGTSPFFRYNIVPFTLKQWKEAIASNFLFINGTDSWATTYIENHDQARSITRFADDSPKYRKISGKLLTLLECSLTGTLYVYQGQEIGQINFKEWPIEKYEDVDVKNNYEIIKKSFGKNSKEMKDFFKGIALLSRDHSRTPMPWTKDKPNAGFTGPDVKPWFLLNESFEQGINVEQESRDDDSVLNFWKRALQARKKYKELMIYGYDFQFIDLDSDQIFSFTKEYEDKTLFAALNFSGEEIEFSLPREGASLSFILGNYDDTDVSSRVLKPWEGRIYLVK", "assay_type": "biochemical", "procedure": "(§1) The antidiabetic effect of gallic acid was evaluated in vitro on inhibitory enzymes (α-glucosidase and α-amylase). Antidiabetic activity was determined using PTP-1B inhibition and α-glucosidase procedures. PTP-1B is a negative regulator of the insulin signaling pathway. All extracts of G. collinum were obtained after a period of extraction of 2 h. […] It is well known that polyphenols can provide health benefits to humans attributed to their strong radical-scavenging and antioxidant effects.\nα-Glucosidase inhibitory activities were evaluated according to the chromogenic method described by."}, "PTP-1B": {"target": "T1, PTP-1B (Homo sapiens, UniProt P18031)", "T1 sequence (P18031 1-435)": "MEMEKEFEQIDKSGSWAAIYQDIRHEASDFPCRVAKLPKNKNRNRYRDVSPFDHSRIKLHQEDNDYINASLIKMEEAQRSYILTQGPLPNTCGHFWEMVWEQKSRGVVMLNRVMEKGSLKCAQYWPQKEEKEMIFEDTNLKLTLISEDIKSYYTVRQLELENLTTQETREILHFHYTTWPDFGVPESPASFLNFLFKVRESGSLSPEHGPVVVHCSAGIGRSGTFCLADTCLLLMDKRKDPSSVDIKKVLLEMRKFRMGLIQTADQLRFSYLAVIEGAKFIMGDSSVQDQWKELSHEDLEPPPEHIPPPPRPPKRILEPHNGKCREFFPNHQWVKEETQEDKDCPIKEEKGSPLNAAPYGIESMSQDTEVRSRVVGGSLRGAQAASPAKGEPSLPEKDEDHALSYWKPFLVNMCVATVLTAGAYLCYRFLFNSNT", "assay": "PTP-1B enzyme inhibition assay", "assay_type": "biochemical", "settings": "in vitro enzyme inhibition; for IC50: read-out: Antidiabetic Activity (PTP-1B) IC50 Values (converted)", "procedure": "as §1"}, "[1]": {"assay": "DPPH scavenging assay (antioxidant activity)", "settings": "30 min, 517 nm", "procedure": "The majority of the antioxidant activities (such as free radical scavenging) of herbal medicines, vegetables and fruits may be due to their phenolic compounds. A lower IC50 value than the standard vitamin C implied a significant antioxidant activity of the tested samples.\nAntioxidant activity was measured using the DPPH (1,1-diphenyl-2-picrylhydrazyl) scavenging assay procedure as published in the literature. The extracts were dissolved in DMSO in a concentration of 100 µg/mL. Different concentrations of each extract were prepared in DMSO. Sample solution in different concentrations was added at 2.5 mL in each well of the 96 micro well plate. Into each well was added 1 mL of 0.3 mM DPPH solution in ethanol to produce the test solutions. DMSO (1 mL) was added to produce the blank solutions. Negative control sample was prepared by mixing 1 mL of DPPH solution with 2.5 mL of DMSO. The solutions were kept in the dark at room temperature for 30 min. Absorbance was measured at the wavelength of 517 nm. Ascorbic acid (vitamin C) was used as the standard sample."}},
  "note": "Where two headings read alike, the source gives them in different places.",
  "data": [
    {"smiles": "Oc1cc(O)c2c(c1)OC(c1ccc(O)c(O)c1)C(O)C2", "note": "(single isomer, unassigned; (+)) [Catechin, (+)-Catechin]", "values": [
      {"measurement": "antidiabetic activities in the α-glucosidase inhibition assay (in words)", "setting": "α-glucosidase", "value": "potent antidiabetic activities"},
      {"measurement": "IC50", "setting": "PTP-1B", "value": 2.14, "unit": "µM"}
    ]},
    {"smiles": "COc1cc2c(=O)oc3c(OC)c(OC)cc4c(=O)oc(c1OC)c2c34", "note": "[3,3′,4,4′-Tetra-O-methylellagic acid]", "values": [
      {"measurement": "Antidiabetic Activity (α-Glucosidase) IC50 Values", "setting": "α-glucosidase; in vitro enzyme inhibition", "value": "No effect"},
      {"measurement": "IC50", "setting": "PTP-1B", "value": 60.4, "unit": "µM"}
    ]},
    {"smiles": "COc1c(O)cc2c(=O)oc3c(OC)c(O)cc4c(=O)oc1c2c34", "note": "[3,3′-Di-O-methylellagic acid]", "values": [
      {"measurement": "Antidiabetic Activity (α-Glucosidase) IC50 Values", "setting": "α-glucosidase; in vitro enzyme inhibition", "value": "No effect"},
      {"measurement": "IC50", "setting": "PTP-1B", "value": 19, "unit": "µM"}
    ]},
    {"smiles": "O=C(O)/C=C/c1ccc(O)c(O)c1", "note": "[Caffeic acid]", "values": [
      {"measurement": "IC50", "setting": "PTP-1B", "value": 199, "unit": "µM"}
    ]},
    {"smiles": "O=C(O[C@@H]1O[C@@H]2COC(=O)c3cc(O)c(O)c(O)c3-c3c(cc(O)c(O)c3O)C(=O)O[C@H]([C@H]1O)[C@@H]2O)c1cc(O)c(O)c(O)c1", "note": "[Corilagin, Corilagin (1-O-galloyl-3,6-O-hexahydroxydiphenoyl-β-D-glucose)]", "values": [
      {"measurement": "antidiabetic activities in the α-glucosidase inhibition assay (in words)", "setting": "α-glucosidase; in vitro enzyme inhibition", "value": "potent antidiabetic activities"},
      {"measurement": "IC50", "setting": "PTP-1B", "value": 1.37, "unit": "µM"}
    ]},
    {"smiles": "CC[C@H](CC[C@@H](C)[C@H]1CC[C@H]2[C@@H]3CC=C4C[C@@H](O[C@@H]5O[C@H](CO)[C@@H](O)[C@H](O)[C@H]5O)CC[C@]4(C)[C@H]3CC[C@]12C)C(C)C", "note": "[Daucosterol, β-Sitosterol-3-O-β-D-glucopyranoside]", "values": [
      {"measurement": "Antidiabetic Activity (PTP-1B) IC50 Values", "setting": "PTP-1B", "value": "No effect"}
    ]},
    {"smiles": "Oc1cc(O)c2c(c1)O[C@H](c1ccc(O)c(O)c1)[C@H](O)C2", "note": "[Epicatechin, (–)-Epicatechin]", "values": [
      {"measurement": "antidiabetic activities in the α-glucosidase inhibition assay (in words)", "setting": "α-glucosidase", "value": "potent antidiabetic activities"},
      {"measurement": "IC50", "setting": "PTP-1B", "value": 0.792, "unit": "µM"}
    ]},
    {"smiles": "Oc1cc(O)c2c(c1)O[C@H](c1cc(O)c(O)c(O)c1)[C@H](O)C2", "note": "[Epigallocatechin, (–)-Epigallocatechin (3,3′,4,5,5′,7-flavanhexol)]", "values": [
      {"measurement": "Antidiabetic Activity (PTP-1B) IC50 Values", "setting": "PTP-1B", "value": "No effect"}
    ]},
    {"smiles": "O=C(O)c1cc(O)c(O)c(O)c1", "note": "[Gallic acid]", "values": [
      {"measurement": "Antidiabetic Activity (PTP-1B) IC50 Values", "setting": "PTP-1B", "value": "No effect"}
    ]},
    {"smiles": "O=c1c(O)c(-c2ccc(O)c(O)c2)oc2cc(O)cc(O)c12", "note": "[Quercetin]", "values": [
      {"measurement": "antidiabetic activities in the α-glucosidase inhibition assay (in words)", "setting": "α-glucosidase; in vitro enzyme inhibition", "value": "potent antidiabetic activities"}
    ]},
    {"smiles": "O=C1O[C@H]([C@@H](O)CO)C(O)=C1O", "note": "[Vitamin C, Ascorbic acid]", "values": [
      {"measurement": "Antioxidant Activity IC50 Values", "setting": "[1]", "value": "5.34 ± 0.42", "unit": "µg/mL"}
    ]}
  ]
}
